The source made the active and inactive calls.
Experiments:
Protein skinhead-1 = target: T1, Protein skinhead-1 (Caenorhabditis elegans, UniProt P34707); type: functional
T1 sequence (P34707 whole entry): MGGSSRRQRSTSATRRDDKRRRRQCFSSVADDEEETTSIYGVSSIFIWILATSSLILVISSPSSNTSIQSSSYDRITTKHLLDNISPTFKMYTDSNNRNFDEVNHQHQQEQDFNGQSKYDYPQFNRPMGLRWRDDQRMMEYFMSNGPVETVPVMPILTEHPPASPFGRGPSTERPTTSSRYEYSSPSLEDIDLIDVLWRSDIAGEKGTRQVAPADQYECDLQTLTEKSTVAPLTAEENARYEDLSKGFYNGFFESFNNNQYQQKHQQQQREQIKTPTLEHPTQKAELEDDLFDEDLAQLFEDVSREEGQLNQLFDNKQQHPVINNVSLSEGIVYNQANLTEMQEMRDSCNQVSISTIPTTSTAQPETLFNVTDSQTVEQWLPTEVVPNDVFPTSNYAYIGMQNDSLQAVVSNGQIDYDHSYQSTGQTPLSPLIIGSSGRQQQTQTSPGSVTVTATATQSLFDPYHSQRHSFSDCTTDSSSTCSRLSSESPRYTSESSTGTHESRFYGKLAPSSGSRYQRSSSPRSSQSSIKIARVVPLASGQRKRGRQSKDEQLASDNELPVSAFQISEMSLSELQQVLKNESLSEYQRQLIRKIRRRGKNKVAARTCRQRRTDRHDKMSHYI

Bcl-2-related protein A1 [1] = target: T2, Bcl-2-related protein A1 (Mus musculus, UniProt Q07440); assay: Bfl-1 binding inhibitors, SAR follow-up, biochemical, fluorescence polarization (AID 1070)
T2 sequence (Q07440 whole entry): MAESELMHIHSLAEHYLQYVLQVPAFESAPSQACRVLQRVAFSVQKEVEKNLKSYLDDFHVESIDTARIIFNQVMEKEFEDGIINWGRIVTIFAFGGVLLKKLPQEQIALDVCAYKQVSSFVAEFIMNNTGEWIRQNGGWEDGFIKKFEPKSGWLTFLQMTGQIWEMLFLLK

[2] = target: T3, Oxysterols receptor LXR-beta (Homo sapiens, UniProt P55055); type: functional, cell-based;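 further: agonist activity at LXR measured by a cell-based luminescence readout across a dose range, run as a counterscreen for daf-12 agonists; HEK293 cells with Gal4-LXR fusion and GAL4-driven luciferase reporter; potency for activation of Gal4-LXR reporter so compounds are agonists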
T3 sequence (P55055 whole entry): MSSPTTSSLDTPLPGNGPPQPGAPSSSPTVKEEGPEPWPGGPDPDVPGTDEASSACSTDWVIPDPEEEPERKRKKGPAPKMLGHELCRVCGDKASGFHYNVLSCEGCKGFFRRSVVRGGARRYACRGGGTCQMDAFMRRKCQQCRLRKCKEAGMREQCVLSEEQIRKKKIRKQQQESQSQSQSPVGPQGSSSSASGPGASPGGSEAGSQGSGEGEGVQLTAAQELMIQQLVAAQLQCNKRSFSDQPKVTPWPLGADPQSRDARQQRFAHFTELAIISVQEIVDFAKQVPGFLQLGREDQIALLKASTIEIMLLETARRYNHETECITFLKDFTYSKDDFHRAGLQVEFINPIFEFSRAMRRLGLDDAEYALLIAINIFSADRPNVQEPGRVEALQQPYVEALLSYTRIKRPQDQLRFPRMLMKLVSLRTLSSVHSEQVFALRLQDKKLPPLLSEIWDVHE

Bcl-2-related protein A1 [3] = target: T2, Bcl-2-related protein A1; assay: small-molecule antagonists of Bfl-1/BH3 interaction – biochemical, TR-FRET, mouse Bfl-1, confirmation (AID 621);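 further: TR-FRET binding of GST-Bfl-1 to FITC-labelled Bid peptide via terbium antibody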
[4] = Luminescence-based dose response cell-based high throughput screening assay for cytotoxic compounds using the IEC-6 intestinal epithelial cell line. [Related pubchem assays: 1858 (Summary AID.), 1825 (Counterscreen.), 1907 (Confirmation screen.)]; type: functional
Paired box protein Pax-8 = Paired box protein Pax-8 (Homo sapiens, UniProt Q06710); assay: PAX8 transcriptional activity inhibition in RMG-I – RMG-I cells, luciferase, cherry-pick, dose response (AID 687027); type: functional, cell-based;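 further: luciferase reporter driven by Pax8 target thyroperoxidase promoter measured by SteadyGlo luminescence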
[5] = Luminescence Cell-Based Dose Retest to Confirm Inhibitors of Cancer Stem Cells. [Related pubchem assays (depositor defined):AID2717, AID2721]; type: functional; details: Homo sapiens
cells = type: functional
[6] = Vero E6 cell cytotoxicity, dose response, cytotoxicity control for non-replicating M. tuberculosis project, secondary assay (AID 492998); type: functional, VeroE6; details: Vero C1008
[7] = HepG2 cell cytotoxicity, dose response, cytotoxicity control for non-replicating M. tuberculosis project (AID 489018); type: functional; details: Mycobacterium tuberculosis
[8] = THP-1 cell cytotoxicity, dose response, cytotoxicity control for non-replicating M. tuberculosis project (AID 489025); type: functional
[9] = Luminescent dose response cell-based high throughput screening assay for inhibitors of the Janus kinase 2 mutant JAK2V617F. [Related pubchem assays: 1446 (Primary screen.), 1521 (Confirmation assay.), 1486 (Counter screen.)]; type: functional
[10] = target: Voltage-gated inwardly rectifying potassium channel KCNH2 (Homo sapiens, UniProt Q12809); assay: concentration-dependent hERG rescue from blockers – cell-based, thallium flux, dose response (AID 2121); type: ADME
14-3-3 protein gamma = 14-3-3 protein gamma (Homo sapiens, UniProt P61981); assay: modulators of 14-3-3 gamma client binding – dose response (AID 711); type: functional
Sequence of 14-3-3 protein gamma (P61981 whole entry): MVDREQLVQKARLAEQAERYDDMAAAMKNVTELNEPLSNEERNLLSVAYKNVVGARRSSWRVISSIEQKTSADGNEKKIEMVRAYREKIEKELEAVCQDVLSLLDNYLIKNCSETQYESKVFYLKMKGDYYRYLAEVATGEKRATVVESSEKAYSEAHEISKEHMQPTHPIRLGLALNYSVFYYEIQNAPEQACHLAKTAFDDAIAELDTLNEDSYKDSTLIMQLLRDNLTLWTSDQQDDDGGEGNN

Sequence of Voltage-gated inwardly rectifying potassium channel KCNH2 (Q12809 whole entry): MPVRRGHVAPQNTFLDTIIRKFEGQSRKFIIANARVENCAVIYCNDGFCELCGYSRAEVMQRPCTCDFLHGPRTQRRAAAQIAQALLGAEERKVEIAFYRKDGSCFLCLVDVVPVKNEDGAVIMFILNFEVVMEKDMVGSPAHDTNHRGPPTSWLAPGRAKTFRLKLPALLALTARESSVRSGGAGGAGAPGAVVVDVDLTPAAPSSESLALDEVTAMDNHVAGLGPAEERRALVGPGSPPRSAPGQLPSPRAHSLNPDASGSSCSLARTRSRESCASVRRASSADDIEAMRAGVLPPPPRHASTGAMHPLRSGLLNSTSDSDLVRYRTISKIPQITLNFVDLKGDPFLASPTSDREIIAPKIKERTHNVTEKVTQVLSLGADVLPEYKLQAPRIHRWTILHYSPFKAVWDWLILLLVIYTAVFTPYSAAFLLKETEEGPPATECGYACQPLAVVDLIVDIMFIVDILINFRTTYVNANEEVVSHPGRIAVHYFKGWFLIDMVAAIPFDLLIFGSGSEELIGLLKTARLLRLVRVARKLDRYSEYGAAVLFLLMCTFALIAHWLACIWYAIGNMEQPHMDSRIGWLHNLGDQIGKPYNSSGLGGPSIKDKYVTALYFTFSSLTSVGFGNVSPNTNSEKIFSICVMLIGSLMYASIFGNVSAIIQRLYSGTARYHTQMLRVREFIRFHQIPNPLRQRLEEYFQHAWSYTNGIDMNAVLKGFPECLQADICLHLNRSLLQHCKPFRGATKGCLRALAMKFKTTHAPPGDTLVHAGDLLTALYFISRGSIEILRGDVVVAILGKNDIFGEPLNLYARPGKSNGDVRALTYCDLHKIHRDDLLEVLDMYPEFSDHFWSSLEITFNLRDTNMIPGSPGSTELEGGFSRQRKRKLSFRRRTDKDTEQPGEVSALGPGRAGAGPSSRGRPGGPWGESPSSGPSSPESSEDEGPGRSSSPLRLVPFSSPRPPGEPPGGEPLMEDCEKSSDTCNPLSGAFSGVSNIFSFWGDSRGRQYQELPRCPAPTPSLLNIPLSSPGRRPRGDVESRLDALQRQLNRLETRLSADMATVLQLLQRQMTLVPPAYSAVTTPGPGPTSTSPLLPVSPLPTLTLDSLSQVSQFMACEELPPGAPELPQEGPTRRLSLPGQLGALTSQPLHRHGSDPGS
Sequence of Paired box protein Pax-8 (Q06710 whole entry): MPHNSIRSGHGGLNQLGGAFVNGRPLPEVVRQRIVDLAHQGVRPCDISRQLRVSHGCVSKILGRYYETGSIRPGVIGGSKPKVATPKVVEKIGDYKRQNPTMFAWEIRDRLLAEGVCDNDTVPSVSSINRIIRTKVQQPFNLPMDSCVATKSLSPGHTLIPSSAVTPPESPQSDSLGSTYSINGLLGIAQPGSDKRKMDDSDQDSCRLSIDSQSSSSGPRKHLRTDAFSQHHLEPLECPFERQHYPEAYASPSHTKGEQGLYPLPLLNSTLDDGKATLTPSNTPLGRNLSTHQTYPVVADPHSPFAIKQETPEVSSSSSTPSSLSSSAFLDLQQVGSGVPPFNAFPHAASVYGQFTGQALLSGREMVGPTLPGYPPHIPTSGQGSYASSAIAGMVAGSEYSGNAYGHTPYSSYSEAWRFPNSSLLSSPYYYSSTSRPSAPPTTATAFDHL

Question: For `Fc1ccc(-n2nnc(-c3cccnc3Cl)n2)cc1`, which IC50 (Protein skinhead-1) is on record?
Answer: 21 µM (active)

Question: What about the IC50 (Bcl-2-related protein A1 [1]) of the same compound?
Answer: > 100 µM (not active)

Question: And the EC50 [2]?
Answer: > 67.5 µM (inactive)

Question: And the IC50 (Bcl-2-related protein A1 [3])?
Answer: > 100 µM (not active)

Question: Which IC50 [4] does the source give for `O=C(Nc1ccc(N2CCN(C(=O)c3cccs3)CC2)cc1)c1ccc([N+](=O)[O-])o1` here?
Answer: 1.77 µM (active)

Question: What about the AC50 (Paired box protein Pax-8) of the same compound?
Answer: 1.96 µM (active)

Question: And the AC50 [5]?
Answer: 1.5 µM (active)

Question: What about the IC50 (cells) of the same compound?
Answer: < 0.1 µM (active)

Question: And the CC50 [6]?
Answer: 1.46 µM (active)

Question: And the CC50 [7]?
Answer: > 20 µM (active)

Question: What about the CC50 [8] of the same compound?
Answer: 1.18 µM (active)

Question: Which IC50 [9] does the source give for `O=S(=O)(c1cnc(Cl)c(Cl)c1)N1CCc2ccccc21` here?
Answer: 3.96 µM (active)

Question: With `C=CCN(CC=C)C(=S)NC(=O)/C=C/c1ccc(OC)cc1` as the compound, how does the EC50 [10] read?
Answer: 3.01 µM (active)

Question: With `CNC(=O)C(Sc1ccccc1)c1ccccc1` (centres undefined) as the compound, how does the IC50 (14-3-3 protein gamma) read?
Answer: > 50 µM (not active)

Source: ChEMBL document CHEMBL1201862, “PubChem BioAssay data set” (2004)
